Measurements from ChEMBL document CHEMBL4043290, “Structure-based Design of Pyridone-Aminal eFT508 Targeting Dysregulated Translation by Selective Mitogen-activated Protein Kinase Interacting Kinases 1 and 2 (MNK1/2) Inhibition” (J Med Chem, 2018).

What was measured:
[1] = Oral bioavailability in Sprague-Dawley rat at 10 mg/kg by LC-ESI-TOF/MS or LC-ESI-MS/MS method; assay type: ADME, organism-based; settings: in vivo
[2] = Metabolic stability in mouse liver microsomes assessed as parent compound remaining at 1 uM after 30 mins by LC-ESI-TOF/MS method; assay type: ADME, microsome; settings: read-out: Stability
[3] = molecular target: T1, Serine/threonine-protein kinase BRSK1 (Homo sapiens) (UniProt Q8TDC3); assay: Inhibition of BRSK1 (unknown origin) at 1 uM relative to control
T1 sequence (whole entry): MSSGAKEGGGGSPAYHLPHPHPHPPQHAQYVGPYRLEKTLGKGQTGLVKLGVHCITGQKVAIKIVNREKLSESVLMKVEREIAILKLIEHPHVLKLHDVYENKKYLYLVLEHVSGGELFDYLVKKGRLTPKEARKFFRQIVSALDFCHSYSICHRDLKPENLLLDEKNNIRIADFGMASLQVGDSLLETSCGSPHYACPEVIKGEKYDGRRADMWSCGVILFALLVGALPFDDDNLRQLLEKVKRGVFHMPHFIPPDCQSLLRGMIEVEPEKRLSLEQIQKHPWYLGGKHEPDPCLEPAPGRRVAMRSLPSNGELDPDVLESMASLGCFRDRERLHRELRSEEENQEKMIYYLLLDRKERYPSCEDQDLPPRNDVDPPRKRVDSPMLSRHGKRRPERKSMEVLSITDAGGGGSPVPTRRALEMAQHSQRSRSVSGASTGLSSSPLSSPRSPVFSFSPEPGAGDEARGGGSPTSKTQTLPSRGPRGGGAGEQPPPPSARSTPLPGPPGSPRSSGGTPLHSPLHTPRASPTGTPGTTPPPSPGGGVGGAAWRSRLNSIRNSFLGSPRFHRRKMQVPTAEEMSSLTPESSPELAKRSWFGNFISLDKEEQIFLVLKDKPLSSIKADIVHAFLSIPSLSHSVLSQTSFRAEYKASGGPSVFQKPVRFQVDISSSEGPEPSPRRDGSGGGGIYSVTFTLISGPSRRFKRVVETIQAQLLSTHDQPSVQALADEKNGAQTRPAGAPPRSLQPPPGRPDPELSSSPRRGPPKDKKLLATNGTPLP

[4] = Metabolic stability in human liver microsomes assessed as parent compound remaining at 1 uM after 30 mins by LC-ESI-TOF/MS method; assay type: ADME, microsome; settings: read-out: Stability
[5] = molecular target: Dual specificity protein kinase CLK4 (Homo sapiens, UniProt Q9HAZ1); assay: Inhibition of CLK4 (unknown origin) at 1 uM relative to control
[6] = molecular target: MAP kinase-activated protein kinase 3 (Homo sapiens) (UniProt Q16644); assay: Inhibition of MAPKAPK3 (unknown origin) at 1 uM relative to control
[7] = molecular target: Vascular endothelial growth factor receptor 3 (Homo sapiens) (UniProt P35916); assay: Inhibition of FLT4 (unknown origin) at 1 uM relative to control
[8] = molecular target: Tyrosine-protein kinase Fgr (Homo sapiens) (UniProt P09769); assay: Inhibition of FGR (unknown origin) at 1 uM relative to control
[9] = molecular target: Dual specificity tyrosine-phosphorylation-regulated kinase 2 (Homo sapiens) (UniProt Q92630); assay: Inhibition of DYRK2 (unknown origin) at 1 uM relative to control
[10] = molecular target: TGF-beta receptor type-2 (Homo sapiens) (UniProt P37173); assay: Inhibition of TGFBR2 (unknown origin) at 1 uM relative to control
[11] = Oral bioavailability in cynomolgus monkey at 3 mg/kg by LC-ESI-TOF/MS or LC-ESI-MS/MS method; assay type: ADME, organism-based, Macaca fascicularis; settings: in vivo
[12] = Oral bioavailability in Beagle dog at 3 mg/kg by LC-ESI-TOF/MS or LC-ESI-MS/MS method; assay type: ADME, organism-based, Canis lupus familiaris; settings: in vivo
[13] = molecular target: Leucine-rich repeat serine/threonine-protein kinase 2 (Homo sapiens) (UniProt Q5S007); assay: Inhibition of LRRK2 (unknown origin) at 1 uM relative to control
[14] = molecular target: Vascular endothelial growth factor receptor 2 (Homo sapiens) (UniProt P35968); assay: Inhibition of KDR (unknown origin) at 1 uM relative to control
[15] = molecular target: Dual specificity tyrosine-phosphorylation-regulated kinase 3 (Homo sapiens) (UniProt O43781); assay: Inhibition of DYRK3 (unknown origin) at 1 uM relative to control
[16] = molecular target: Receptor-type tyrosine-protein kinase FLT3 (Homo sapiens) (UniProt P36888); assay: Inhibition of FLT3 (unknown origin) at 1 uM relative to control
[17] = molecular target: T2, Serine/threonine-protein kinase 17A (Homo sapiens) (UniProt Q9UEE5); assay: Inhibition of DRAK1 (unknown origin) at 1 uM relative to control
T2 sequence (whole entry): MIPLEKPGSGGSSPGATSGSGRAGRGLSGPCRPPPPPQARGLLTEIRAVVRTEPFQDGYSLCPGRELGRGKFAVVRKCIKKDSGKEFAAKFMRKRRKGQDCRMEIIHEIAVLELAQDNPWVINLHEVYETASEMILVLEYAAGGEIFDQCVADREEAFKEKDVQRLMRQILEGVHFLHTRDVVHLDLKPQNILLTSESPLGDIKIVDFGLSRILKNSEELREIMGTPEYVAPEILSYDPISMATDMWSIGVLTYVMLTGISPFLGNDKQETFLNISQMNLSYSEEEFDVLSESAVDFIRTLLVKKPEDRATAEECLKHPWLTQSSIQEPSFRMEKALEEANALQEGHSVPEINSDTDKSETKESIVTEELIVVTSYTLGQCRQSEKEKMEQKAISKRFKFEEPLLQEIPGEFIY

[18] = molecular target: Platelet-derived growth factor receptor alpha (Homo sapiens) (UniProt P16234); assay: Inhibition of PDGFRA (unknown origin) at 1 uM relative to control
physchem = settings: octanol/water
[19] = molecular target: MAP kinase-interacting serine/threonine-protein kinase 1 (Homo sapiens, UniProt Q9BUB5)
[20] = molecular target: Proto-oncogene tyrosine-protein kinase receptor Ret (Homo sapiens) (UniProt P07949); assay: Inhibition of RET (unknown origin) at 1 uM relative to control
[21] = Metabolic stability in rat liver microsomes assessed as parent compound remaining at 1 uM after 30 mins by LC-ESI-TOF/MS method; assay type: ADME, microsome; settings: read-out: Stability
[22] = molecular target: Serine/threonine-protein kinase 17B (Homo sapiens) (UniProt O94768); assay: Inhibition of DRAK2 (unknown origin) at 1 uM relative to control
[23] = molecular target: Ribosomal protein S6 kinase alpha-6 (Homo sapiens) (UniProt Q9UK32); assay: Inhibition of RSK4 (unknown origin) at 1 uM relative to control
in vitro = settings: human, Caco-2
[24] = Oral bioavailability in Balb/c mouse at 10 mg/kg by LC-ESI-TOF/MS or LC-ESI-MS/MS method; assay type: ADME, organism-based; settings: in vivo
[25] = Oral bioavailability in Beagle dog at 5 mg/kg by LC-ESI-TOF/MS or LC-ESI-MS/MS method; assay type: ADME, organism-based, Canis lupus familiaris; settings: in vivo
[26] = Oral bioavailability in cynomolgus monkey at 5 mg/kg by LC-ESI-TOF/MS or LC-ESI-MS/MS method; assay type: ADME, organism-based, Macaca fascicularis; settings: in vivo
[27] = molecular target: Receptor-interacting serine/threonine-protein kinase 2 (Homo sapiens) (UniProt O43353); assay: Inhibition of RIPK2 (unknown origin) at 1 uM relative to control

Sequence of Serine/threonine-protein kinase 17B (Homo sapiens) (O94768 whole entry): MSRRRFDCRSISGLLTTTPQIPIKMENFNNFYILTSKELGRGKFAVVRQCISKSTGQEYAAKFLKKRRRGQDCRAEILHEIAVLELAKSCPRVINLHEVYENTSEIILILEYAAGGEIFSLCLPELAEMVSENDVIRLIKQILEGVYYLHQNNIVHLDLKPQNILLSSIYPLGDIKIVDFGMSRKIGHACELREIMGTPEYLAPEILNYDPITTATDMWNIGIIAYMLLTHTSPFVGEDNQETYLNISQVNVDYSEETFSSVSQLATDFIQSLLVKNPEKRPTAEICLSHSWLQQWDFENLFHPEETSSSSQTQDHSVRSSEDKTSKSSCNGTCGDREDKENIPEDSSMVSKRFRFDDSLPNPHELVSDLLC
Sequence of Vascular endothelial growth factor receptor 2 (Homo sapiens) (P35968 whole entry): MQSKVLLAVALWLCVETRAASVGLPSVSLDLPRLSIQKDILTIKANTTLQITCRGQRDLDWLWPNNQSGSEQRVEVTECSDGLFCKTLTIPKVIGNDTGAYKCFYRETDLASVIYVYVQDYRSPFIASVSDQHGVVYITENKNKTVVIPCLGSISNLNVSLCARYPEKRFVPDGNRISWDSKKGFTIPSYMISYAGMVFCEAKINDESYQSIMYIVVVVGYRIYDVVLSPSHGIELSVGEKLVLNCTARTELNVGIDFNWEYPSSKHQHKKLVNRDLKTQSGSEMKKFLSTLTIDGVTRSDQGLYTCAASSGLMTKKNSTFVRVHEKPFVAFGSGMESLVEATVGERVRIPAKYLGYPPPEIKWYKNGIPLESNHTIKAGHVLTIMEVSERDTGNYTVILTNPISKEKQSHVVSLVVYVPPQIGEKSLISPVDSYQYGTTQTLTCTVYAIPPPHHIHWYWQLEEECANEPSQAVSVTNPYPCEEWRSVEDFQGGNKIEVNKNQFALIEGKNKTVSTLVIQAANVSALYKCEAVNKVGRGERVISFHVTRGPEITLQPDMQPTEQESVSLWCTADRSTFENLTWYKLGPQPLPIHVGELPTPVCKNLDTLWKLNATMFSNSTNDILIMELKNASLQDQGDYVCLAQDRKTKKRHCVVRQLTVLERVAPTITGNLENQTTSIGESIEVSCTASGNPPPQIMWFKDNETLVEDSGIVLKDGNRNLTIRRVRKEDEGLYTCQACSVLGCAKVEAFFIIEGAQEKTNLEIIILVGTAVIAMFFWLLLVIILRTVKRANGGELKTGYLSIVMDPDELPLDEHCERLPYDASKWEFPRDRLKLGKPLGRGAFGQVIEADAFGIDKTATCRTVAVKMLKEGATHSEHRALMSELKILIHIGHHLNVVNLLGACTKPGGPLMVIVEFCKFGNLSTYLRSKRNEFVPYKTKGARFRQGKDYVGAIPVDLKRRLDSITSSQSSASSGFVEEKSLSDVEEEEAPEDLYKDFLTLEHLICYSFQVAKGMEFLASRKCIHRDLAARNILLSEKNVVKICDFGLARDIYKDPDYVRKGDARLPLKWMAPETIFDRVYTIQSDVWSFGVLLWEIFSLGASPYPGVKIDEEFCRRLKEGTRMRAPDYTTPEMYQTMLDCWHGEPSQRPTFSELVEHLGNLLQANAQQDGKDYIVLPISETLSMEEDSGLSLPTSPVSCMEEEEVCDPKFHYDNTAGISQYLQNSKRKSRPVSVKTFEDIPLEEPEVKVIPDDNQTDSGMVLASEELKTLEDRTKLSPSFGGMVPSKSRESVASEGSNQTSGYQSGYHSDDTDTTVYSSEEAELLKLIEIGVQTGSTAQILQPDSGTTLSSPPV
Sequence of Dual specificity tyrosine-phosphorylation-regulated kinase 3 (Homo sapiens) (O43781 whole entry): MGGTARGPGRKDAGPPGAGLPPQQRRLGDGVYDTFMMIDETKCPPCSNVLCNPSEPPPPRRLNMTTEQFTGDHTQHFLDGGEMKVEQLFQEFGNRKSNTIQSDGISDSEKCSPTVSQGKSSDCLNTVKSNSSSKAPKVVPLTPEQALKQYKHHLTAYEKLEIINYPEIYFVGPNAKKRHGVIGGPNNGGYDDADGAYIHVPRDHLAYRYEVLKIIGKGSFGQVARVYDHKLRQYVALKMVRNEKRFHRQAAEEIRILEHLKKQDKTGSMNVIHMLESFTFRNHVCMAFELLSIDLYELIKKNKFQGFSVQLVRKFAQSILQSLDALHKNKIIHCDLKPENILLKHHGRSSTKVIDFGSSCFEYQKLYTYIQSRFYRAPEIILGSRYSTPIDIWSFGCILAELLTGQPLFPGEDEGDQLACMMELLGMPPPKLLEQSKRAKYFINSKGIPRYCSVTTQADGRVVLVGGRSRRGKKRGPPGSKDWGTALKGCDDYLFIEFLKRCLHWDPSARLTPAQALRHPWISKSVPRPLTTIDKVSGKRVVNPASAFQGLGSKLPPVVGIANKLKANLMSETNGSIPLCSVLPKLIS
Sequence of Dual specificity protein kinase CLK4 (Q9HAZ1 whole entry, looked up): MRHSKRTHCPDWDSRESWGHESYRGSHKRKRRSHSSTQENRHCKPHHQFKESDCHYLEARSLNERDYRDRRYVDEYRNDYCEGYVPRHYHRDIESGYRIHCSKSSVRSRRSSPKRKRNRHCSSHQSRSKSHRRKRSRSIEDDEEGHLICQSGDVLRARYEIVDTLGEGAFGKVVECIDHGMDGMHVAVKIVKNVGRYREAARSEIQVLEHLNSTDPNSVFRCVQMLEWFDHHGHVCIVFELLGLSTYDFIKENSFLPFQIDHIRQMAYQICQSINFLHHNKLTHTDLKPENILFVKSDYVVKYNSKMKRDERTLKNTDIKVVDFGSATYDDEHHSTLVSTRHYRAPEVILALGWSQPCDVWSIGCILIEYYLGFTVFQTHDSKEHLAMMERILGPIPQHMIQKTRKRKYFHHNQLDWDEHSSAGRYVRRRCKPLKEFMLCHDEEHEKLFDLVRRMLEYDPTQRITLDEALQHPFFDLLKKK
Sequence of Proto-oncogene tyrosine-protein kinase receptor Ret (Homo sapiens) (P07949 whole entry): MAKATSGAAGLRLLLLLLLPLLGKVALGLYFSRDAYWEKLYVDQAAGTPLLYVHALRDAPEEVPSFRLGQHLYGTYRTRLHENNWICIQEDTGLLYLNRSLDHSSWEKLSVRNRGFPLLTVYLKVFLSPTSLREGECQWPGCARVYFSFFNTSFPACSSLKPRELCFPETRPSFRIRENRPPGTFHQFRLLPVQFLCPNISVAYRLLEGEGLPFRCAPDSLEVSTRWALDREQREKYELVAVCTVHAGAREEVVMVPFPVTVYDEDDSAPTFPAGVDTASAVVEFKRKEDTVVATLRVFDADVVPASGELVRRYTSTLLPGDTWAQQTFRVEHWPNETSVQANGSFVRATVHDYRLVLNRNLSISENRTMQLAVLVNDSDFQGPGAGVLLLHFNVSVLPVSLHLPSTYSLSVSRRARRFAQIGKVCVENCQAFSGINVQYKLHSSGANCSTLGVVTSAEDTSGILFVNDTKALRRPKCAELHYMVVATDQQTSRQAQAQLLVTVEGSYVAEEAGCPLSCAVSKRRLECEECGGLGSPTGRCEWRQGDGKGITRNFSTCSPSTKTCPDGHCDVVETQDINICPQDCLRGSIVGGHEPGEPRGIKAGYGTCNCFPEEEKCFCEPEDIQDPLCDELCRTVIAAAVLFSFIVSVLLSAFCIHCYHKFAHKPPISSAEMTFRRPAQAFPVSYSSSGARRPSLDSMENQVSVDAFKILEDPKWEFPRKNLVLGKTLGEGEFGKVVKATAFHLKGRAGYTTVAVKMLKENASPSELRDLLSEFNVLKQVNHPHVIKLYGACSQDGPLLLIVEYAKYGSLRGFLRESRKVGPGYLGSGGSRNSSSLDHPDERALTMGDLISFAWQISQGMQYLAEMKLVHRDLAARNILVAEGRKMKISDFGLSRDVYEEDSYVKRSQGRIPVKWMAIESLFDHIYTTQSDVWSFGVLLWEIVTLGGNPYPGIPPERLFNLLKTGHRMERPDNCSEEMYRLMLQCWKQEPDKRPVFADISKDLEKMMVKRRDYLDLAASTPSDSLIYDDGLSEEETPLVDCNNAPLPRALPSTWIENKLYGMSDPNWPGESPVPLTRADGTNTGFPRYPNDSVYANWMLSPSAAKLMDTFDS
Sequence of TGF-beta receptor type-2 (Homo sapiens) (P37173 whole entry): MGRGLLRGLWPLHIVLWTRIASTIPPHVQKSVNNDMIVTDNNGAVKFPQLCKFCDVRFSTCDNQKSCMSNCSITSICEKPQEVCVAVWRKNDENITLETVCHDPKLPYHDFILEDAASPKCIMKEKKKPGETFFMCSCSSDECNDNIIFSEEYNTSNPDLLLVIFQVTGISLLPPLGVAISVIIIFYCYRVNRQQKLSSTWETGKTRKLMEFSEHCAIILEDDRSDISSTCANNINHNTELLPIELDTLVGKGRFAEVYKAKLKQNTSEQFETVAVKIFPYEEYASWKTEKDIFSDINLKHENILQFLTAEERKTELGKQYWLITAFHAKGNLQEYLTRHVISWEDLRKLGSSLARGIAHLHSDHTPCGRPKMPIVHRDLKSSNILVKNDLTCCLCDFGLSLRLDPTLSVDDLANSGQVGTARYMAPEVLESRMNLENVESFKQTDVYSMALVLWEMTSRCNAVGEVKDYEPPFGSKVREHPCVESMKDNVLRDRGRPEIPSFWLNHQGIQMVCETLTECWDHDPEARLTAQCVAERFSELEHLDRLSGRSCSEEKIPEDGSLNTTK
Sequence of MAP kinase-interacting serine/threonine-protein kinase 1 (Q9BUB5 whole entry): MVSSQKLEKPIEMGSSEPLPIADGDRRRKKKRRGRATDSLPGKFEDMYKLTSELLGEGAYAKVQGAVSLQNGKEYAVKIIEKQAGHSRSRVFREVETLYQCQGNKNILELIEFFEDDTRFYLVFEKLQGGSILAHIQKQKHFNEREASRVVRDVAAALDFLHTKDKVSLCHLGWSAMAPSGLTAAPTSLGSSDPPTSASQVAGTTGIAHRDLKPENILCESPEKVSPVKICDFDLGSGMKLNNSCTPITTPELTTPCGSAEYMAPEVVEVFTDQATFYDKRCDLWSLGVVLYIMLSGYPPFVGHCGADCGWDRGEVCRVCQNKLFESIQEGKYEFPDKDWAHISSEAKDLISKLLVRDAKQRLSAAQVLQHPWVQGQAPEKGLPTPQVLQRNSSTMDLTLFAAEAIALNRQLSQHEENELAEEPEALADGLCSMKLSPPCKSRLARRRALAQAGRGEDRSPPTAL

| SMILES | bioavailability [1] | remaining at 0.5 h, 1 µM [2] | inhibition [3] | remaining at 0.5 h, 1 µM [4] | inhibition [5] | inhibition [10] | inhibition [13] | inhibition [14] | inhibition [15] | inhibition [17] | logP (physchem) | inhibition [20] | remaining at 0.5 h, 1 µM [21] | inhibition [22] | Papp A→B at 2 h, 5 µM (in vitro) | bioavailability [24] | other results |
| --- | --- | --- | --- | --- | --- | --- | --- | --- | --- | --- | --- | --- | --- | --- | --- | --- | --- |
| Nc1cc(Nc2cc(Cl)c3n(c2=O)C2(CCCC2)NC3=O)ncn1 | 69% | 71% | 58% | 85% | 75% | 74% | 52% | 96% | 67% | 95% | 2.4 | 87% | 73% | 82% | 1.2 ×10⁻⁶ cm/s | 80% | inhibition [6]: 54%; inhibition [7]: 89%; inhibition [8]: 60%; inhibition [9]: 81%; bioavailability [11]: 51%; bioavailability [12]: > 100%; inhibition [16]: 55%; inhibition [18]: 55%; IC50 [19]: 0.88 nM; inhibition [23]: 58% |
| Nc1cc(Nc2cc(Cl)c3n(c2=O)C2(CCCCC2)NC3=O)ncn1 | 28% | 73% | 55% | 89% | 75% | 57% | 59% | 71% | 56% | 96% | 3.2 | 55% | 69% | 82% | 4.2 ×10⁻⁶ cm/s | 58% | bioavailability [25]: > 100%; bioavailability [26]: 50%; inhibition [27]: 59% |
